Data: US7754718B2 (priority 2004, dated 2010)

Experiments:
wt (ayw) HBV = assay: HBV DNA inhibition in HepG2.2.15 cells, Southern blot hybridization; format: cell-based; details: Hepatitis B virus, HepG2.2.15, 144 h, read-out: EC50 (μM) wt (ayw), HepG2.2.15 cells, 6-day treatment, HBV DNA by Southern blot
Protocol: Southern blot hybridization was used to measure the effects of compounds on HBV DNA. Total DNA from cells was extracted using Dneasy Tissue kit (Qiagen Inc. Valencia, Calif.) and separated on a 0.8% agarose gel. Separated DNA was transferred to a Hybond-N+membrane (Amersham Pharmacia Biotech Inc. Piscataway, N.J.). Inhibition of viral DNA replication was assessed by comparison of the replicative HBV DNA from drug-treated versus untreated cultures using hybridization of the membrane with a [α-^32P] dCTP labeled whole HBV DNA probe followed by autoradiography. Quantitative densitometry was performed on a Molecular Dynamics Densitometer (Amersham Pharmacia Biotech Inc. Piscataway, N.J.) using ImageQuaNT image analysis software. The integrated HBV genome was used as the internal control to normalize the amount of DNA loaded. Northern blot hybridization was used to measure the effects of the compounds on HBV RNA. Total intracellular RNA was extracted from cells using Rneasy kit (Qiagen Inc. Valencia, Calif.). RNA was separated in a 1.2% formaldehyde agarose gel and transferred to a Hybond-N+ membrane (Amersham Pharmacia Biotech Inc. Piscataway, N.J.). The membrane was hybridized with the same probe mentioned above at 65° C. followed by autoradiography. GAPDH RNA level was used as an internal control to normalize the amount of RNA loaded. The decrease of HBV core protein expression was assessed by western blot. A cellular crude extract of […] cells was separated on a 12% SDS-PAGE gel and transferred onto a nitrocellulose membrane (Bio-rad Laboratories, Hercules, Calif.). Anti-HBV core antibody (DAKO Corp. Carpinteria, Calif.) and anti rabbit IgG secondary antibody (Sigma. St. Louis, Mo.) were added. Actin protein level was used as the internal control.
Hep.G2.2.15 is a hepatoblastoma cell line stably transfected with a HBV genome (ayw strain) (Sells et al., 1987, Proc Natl Acad Sci USA. 84 (4):1005-1009). […]
The effect of helioxanthin and 22 on HBV DNA in HepG2.2.15 cells, which is stably transfected with the HBV genome, was assessed. […]

HepG2 cells = assay: Cell cytotoxicity assay on HepG2 cells, methylene blue staining; format: cell-based; details: Homo sapiens, 72 h, concentration that inhibited 50% of cell growth, 3 days
Protocol: Cytotoxicities of test compounds on MT-2 (Mellors et al., 1992 Mol. Pharmacol. 41:446-451) and CEM (Grove et al., 1995, Cancer Res. 55:3008-3011) cells were determined according to the previously reported procedures. Hepg2 cells were seeded at a density of 10^4 cells/ml/well in 24-well plates and cultured in MEME supplemented with 10% FBS at 37° C. and 5% CO2. Each test compound at different concentrations was added on the second day of the culture and the cells were incubated for another 3 days. At the end of the incubation period, the medium was removed and 0.5 ml of 0.5% methylene blue in 50% ethanol (v/v) was added to each well and set at room temperature for 30-60 minutes. The methylene blue was removed; the plates were washed with water and allowed to air dry. Once dry, 1% sarcosyl was added to dissolve the stained cell layer. The absorbance at 595 nm was measured with a microplate reader (Molecular Devices Corp. Sunnyvale, Calif.). The cytotoxicity to CEM cell was calculated as described previously (Grove et al., 1995, Cancer Res. 55 (14): 3008-3011).

SMILES | EC50 (wt (ayw) HBV) [µM] | IC50 (HepG2 cells) [µM]
O=C1OCc2c1cc1ccc3c(c1c2-c1ccc2c(c1)OCO2)OCO3 [Compound 2, 10-Benzo[1,3]dioxol-5-yl-9H-furo[3′,4′:6,7]naphtho[1,2-d][1,3]dioxol-7-one, reference compound] | ~1 | 6
Nc1ccn([C@@H]2CS[C@H](CO)O2)c(=O)n1 [Compound 3TC, (−)-(2R,5S)-1-[2-(hydroxymethyl)oxathiolan-5-yl]cytosine] | 0.05 ± 0.03 | > 100
COc1ccc(-c2c3c(cc4ccc5c(c24)OCO5)C(=O)NC3)cc1OC [Compound 22, 10-(3,4-Dimethoxy-phenyl)-8,9-dihydro-1,3-dioxa-8-aza-dicyclopenta[a,g]naphthalen-7-one] | ~0.08 | 2
